Laboratory results taken from patent US12503490B2, “Method of treating Gram-negative bacterial infection with isolated darobactin compounds” (Northeastern University, priority 2018, dated 2025).

System: E. coli
Test: Antagonization assay by lipopolysaccharide (LPS)
Assay type: cell-based
Set-up: key: +: grown; −: not grown
Experimental: darobactin A is a large compound of 966 Da molecular weight. The limit for penetration into Gram-negative bacteria is around 500 Da. It therefore seemed possible that darobactin A acted on the cell surface, similarly to polymyxin which targets lipopolysaccharide (LPS). In order to test this, activity of darobactin A was tested in the presence of LPS. E. coli was inoculated into 5 mL MHIIB, and grown until the cell density reach to OD600=0.1-0.9. The cell suspension was diluted to OD600=0.002 with 2×MHIIB. 40 μL of LPS solution (final concentration range from 0 to 800 μg/mL) and 2 μL of 2×MIC antibiotic solution (final concentration: polymyxin; 0.5 μg/mL, ampicillin; 16 μg/mL, darobactin A; 16 μg/mL) were mixed in a 96-well plate and fill up to 50 μL by sterile dI water. LPS and antibiotic solutions were mixed with 50 μL of E. coli cell suspensions, and incubated at 37° C. for 20 hours. The growth of E. coli was determined visually (Table 3).

Row | Molecule | growth of E. coli with 2× MIC antibiotic (LPS 0 μg/mL) | growth of E. coli with 2× MIC antibiotic (LPS 3.13 μg/mL) | growth of E. coli with 2× MIC antibiotic (LPS 6.25 μg/mL) | growth of E. coli with 2× MIC antibiotic (LPS 800 μg/mL)
1 | CC1(C)S[C@@H]2[C@H](NC(=O)[C@H](N)c3ccccc3)C(=O)N2[C@H]1C(=O)O [Ampicillin] | − | − | − | −
2 | Polymyxin B | − | − | + | +
